Reference: patent US20030092638A1, “Protopanaxadiol and protopanaxatriol and their use as anti-cancer agents” (priority 2001, published 2003)
Where two headings read alike, the source gives them in different places.

What was measured:
[1] = system: MCF7 cells; conditions: MCF7 (drug sensitive)
Method: (§1) Cells were either treated with various concentrations of paclitexal alone or in the presence of 20 μg/ml Rh2, 6 μg/ml PPT or PPD.

[2] = system: B16 melanoma tumor cells
Method: Cells were treated with various concentrations of the compounds and the viability was measured 24 hours post treatment.

[3] = system: MCF7r cells; conditions: MCF7r (drug resistant)
Method: as §1

[4] = system: MCF7 cells; experiment: cells; conditions: Homo sapiens, MCF7, read-out: IC50 of taxol
Method: as §1

[5] = system: MCF7r cells; experiment: cells; conditions: Homo sapiens, read-out: IC50 of taxol
Method: as §1

Row | SMILES | Enhancement of IC50 of taxol versus taxol only ([1]; compound at 6 μg/ml) | Tumor inhibitory effect (cytotoxicity) compared with Rh2 [2] | Enhancement of IC50 of taxol versus taxol only ([3]; compound at 6 μg/ml) | Enhancement of IC50 of taxol versus taxol only ([1]; compound at 20 μg/ml) | Enhancement of IC50 of taxol versus taxol only ([3]; compound at 20 μg/ml) | IC50 [4] | IC50 [5]
1 | CC(C)=CCCC(C)(O)[C@H]1CC[C@]2(C)[C@@H]1[C@H](O)C[C@@H]1[C@@]3(C)CC[C@H](O)C(C)(C)[C@@H]3CC[C@]12C (stereo in doubt) [Protopanaxadiol, protopanaxadiol] | (18 fold | more potent tumor inhibitory effect than Rh2 | (29517 fold | – | – | – | –
2 | CC(C)=CCC[C@](C)(O)[C@H]1CC[C@]2(C)[C@@H]1[C@H](O)C[C@@H]1[C@@]3(C)CC[C@H](O)C(C)(C)[C@@H]3[C@@H](O)C[C@]12C [Protopanaxatrial, protopanaxatriol] | (4.9 fold | more potent tumor inhibitory effect than Rh2 | (1744 fold | – | – | – | –
3 | CC(C)=CCC[C@](C)(O)[C@H]1CC[C@]2(C)[C@@H]1[C@H](O)C[C@@H]1[C@@]3(C)CC[C@H](O[C@@H]4O[C@H](CO)[C@@H](O)[C@H](O)[C@H]4O)C(C)(C)[C@@H]3CC[C@]12C [Rh2, 3-O-β-D-glucopyranosyl-20(s)-protopanaxadiol, reference compound] | – | – | – | (3.65 fold | (4470 fold | – | –
4 | CC(=O)O[C@H]1C(=O)[C@@]2(C)[C@H]([C@H](OC(=O)c3ccccc3)[C@]3(O)C[C@H](OC(=O)[C@H](O)[C@@H](NC(=O)c4ccccc4)c4ccccc4)C(C)=C1C3(C)C)[C@]1(OC(C)=O)CO[C@@H]1C[C@@H]2O [Taxol, paclitaxel] | – | – | – | – | – | 225 nM | 930 nM
